This is an account of results in patent publication US20240131007A1, “METHODS AND COMPOSITIONS FOR PICORNAVIRUS ANTI-VIRAL AGENTS” (University of Connecticut, priority 2022, published 2024).

One data set addresses T1, EV-A71 Δ2C^116-329 (Human enterovirus 71, UniProt Q66478).
T1 construct: EV-A71 Δ2C (amino acids 116-329) was designed with; made in house; host or cells: E. coli Rosetta 2(DE3) pLysS, pMALc5x vector
Briefly: biochemical. It is filed as biochemical.

Another data set concerns EV-A71. Briefly: CPE inhibition assay (Cell Titer Glo) against EV-A71 in Vero cells. Format: cell-based, Enterovirus A71. As to conditions: for IC50: Enterovirus A, EVA71, EV-A71, Vero cells, read-out: IC50.
A further data set in a line: in vitro. As to conditions: African green monkey; for CC50 at 3 days: CC50 (μM).
Where [1] appears, read: Table 10, Scaffold 1, CC50/IC50.
Where [2] appears, read: Table 12, Scaffold 3, CC50/IC50.
[3] abbreviates: Table 13, Scaffold 4, CC50/IC50.

SMILES strings stand for the structures. Like-named read-outs stand apart in the source and are kept apart here. Some results are limits rather than exact numbers.

T1 sequence (Q66478 1227-1440, stated change not applied): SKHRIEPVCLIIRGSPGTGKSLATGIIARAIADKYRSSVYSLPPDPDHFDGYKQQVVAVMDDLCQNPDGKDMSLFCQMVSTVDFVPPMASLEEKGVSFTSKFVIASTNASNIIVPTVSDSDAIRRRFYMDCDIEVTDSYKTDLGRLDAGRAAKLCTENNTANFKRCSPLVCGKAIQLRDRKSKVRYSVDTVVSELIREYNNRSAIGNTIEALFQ

Broadly, the IC50 is the concentration that inhibits the measured activity by half. On to `Cc1cccc(C(=O)Nc2ccc(-c3nc4ccccc4[nH]3)cc2)c1` [Compound 12, N-[4-(1H-benzimidazol-2-yl)phenyl]-3-methylbenzamide], for which the IC50 at EV-A71 Δ2C^116-329 amounted to 652 µM; in the data set on EV-A71 (Table 10, Scaffold 1), 13.2 µM. Also, the “Selectivity Index” value in the data set with EV-A71 (setting [1]) amounted to 32.71. Moreover, the CC50 at 3 days in “in vitro” is 432 µM.

`O=C(Nc1ccc(-c2nc3ccccc3[nH]2)cc1)c1ccc(C(=O)Nc2ccc(-c3nc4ccccc4[nH]3)cc2)cc1` [Compound 28, N,N′-bis[4-(1H-benzimidazol-2-yl)phenyl]terephthalamide]: the IC50 against EV-A71 Δ2C^116-329 was found to be 0.55 µM; with EV-A71 (Table 10, Scaffold 1), 41.7 µM. In the data set on EV-A71 (setting [1]), the “Selectivity Index” value is on record as above 9.6. Also, in “in vitro”, the CC50 at 3 days is above 400 µM.

Turning to `COc1ccc(C(=O)Nc2ccc(-c3nc4cc(C)ccc4[nH]3)cc2)cc1OC` [Compound 37, 3,4-dimethoxy-N-[4-(5-methyl-1H-benzimidazol-2-yl)phenyl]benzamide], the half-inhibitory concentration (IC50) on EV-A71 Δ2C^116-329 turned out to be 20.6 µM; in the data set with EV-A71 (Table 10, Scaffold 1) it was 69.1 µM. In addition, the “Selectivity Index” value with EV-A71 (setting [1]) is above 5.79. In “in vitro”, this compound displayed a CC50 at 3 days above 400 µM.

For the compound `Cc1ccc2[nH]c(-c3ccc(NC(=O)c4ccc(Br)o4)cc3)nc2c1` [Compound 40, 5-bromo-N-[4-(5-methyl-1H-benzimidazol-2-yl)phenyl]-2-furamide], the IC50 against EV-A71 Δ2C^116-329 came to 37.3 µM; in the data set with EV-A71 (Table 10, Scaffold 1), 81.9 µM. Moreover, the “Selectivity Index” value with EV-A71 (setting [1]) is above 4.89. In “in vitro”, the CC50 at 3 days was above 400 µM.

With `Cc1ccc2[nH]c(-c3ccc(NC(=O)c4ccc(C)c(C)c4)cc3)nc2c1` [Compound 43, 3,4-dimethyl-N-[4-(5-methyl-1H-benzimidazol-2-yl)phenyl]benzamide], the 50% inhibitory concentration (IC50) is 55 µM on EV-A71 Δ2C^116-329 and 4.27 µM in the data set with EV-A71 (Table 8, virus-induced CPE). In addition, the “Selectivity Index” value in the data set on EV-A71 (Table 8, CC50/IC50) is 39.86; in the data set on EV-A71 (setting [1]), 39.86. In the data set “in vitro”, this compound gave a CC50 at 3 days of 170 µM.

On to `Cc1ccc2[nH]c(-c3ccc(NC(=O)c4cccc(Br)c4)cc3)nc2c1` [Compound 44, 3-bromo-N-[4-(5-methyl-1H-benzimidazol-2-yl)phenyl]benzamide], for which the IC50 on EV-A71 Δ2C^116-329 worked out at 19 µM; with EV-A71 (Table 10, Scaffold 1), 10.5 µM. The “Selectivity Index” value in the data set on EV-A71 (setting [1]) is 45.23. The CC50 at 3 days in “in vitro” turned out to be 475 µM.

On to `O=C(Nc1ccc(-c2nc3ccccc3o2)cc1)c1ccc(NC(=O)c2cc3ccccc3o2)cc1` [Compound 46, N-[4-({[4-(1,3-benzoxazol-2-yl)phenyl]amino}carbonyl)phenyl]-1-benzofuran-2-carboxamide], for which the half-inhibitory concentration (IC50) is 17.4 µM against EV-A71 Δ2C^116-329 and 40 µM in the data set on EV-A71 (Table 10, Scaffold 1). Besides, the “Selectivity Index” value with EV-A71 (setting [1]) is recorded as 34.49. In addition, the CC50 at 3 days in “in vitro” came to 1380 µM.

As for `O=C(Nc1cccc(-c2nc3cc4ccccc4cc3[nH]2)c1)c1ccco1` [Compound 50, N-[3-(1H-naphtho[2,3-d]imidazol-2-yl)phenyl]-2-furamide], the half-inhibitory concentration (IC50) in the data set on EV-A71 (Table 11, Scaffold 2) is above 25 µM. In the data set “in vitro”, this compound yielded a CC50 at 3 days of 562 µM.

Turning to `O=C(Nc1ccc2[nH]c(-c3ccccc3)nc2c1)c1ccccc1` [Compound 53, N-(2-phenyl-1H-benzimidazol-5-yl)benzamide], in the data set with EV-A71, the “Selectivity Index” value was found to be 9.43. Also, the IC50 in the data set on EV-A71 (Table 12, Scaffold 3) stood at 13.2 µM. Besides, the CC50 in “in vitro” was found to be 125 µM.

In the case of `Cn1cccc1-c1nc2cc(NC(=O)c3ccccc3)ccc2[nH]1` [Compound 54, N-[2-(1-methyl-1H-pyrrol-2-yl)-1H-benzimidazol-5-yl]benzamide], the IC50 in the data set with EV-A71 (Table 12, Scaffold 3) worked out at 47.6 µM. Further, the “Selectivity Index” value in the data set on EV-A71 (setting [2]) is given as 0.69. In “in vitro”, the CC50 at 3 days is 33.1 µM.

As to `Cn1cccc1-c1nc2cc(NC(=O)c3cccs3)ccc2[nH]1` [Compound 58, N-[2-(1-methyl-1H-pyrrol-2-yl)-1H-benzimidazol-5-yl]-2-thiophenecarboxamide], the IC50 with EV-A71 (Table 12, Scaffold 3) is 23.7 µM. For the same compound, in the data set with EV-A71 (setting [2]), the “Selectivity Index” value was found to be 2.66. Moreover, the CC50 at 3 days in “in vitro” was 62.8 µM.

For `Cc1ccc2[nH]c(-c3ccc(N)cc3)nc2c1` [Compound 59, 4-(5-methyl-1H-benzimidazol-2-yl)aniline], the half-inhibitory concentration (IC50) in the data set on EV-A71 (Table 13, Scaffold 4) was above 25 µM. In the data set “in vitro”, the CC50 at 3 days is 189 µM.

For the compound `Cc1ccc(-c2nc3ccccc3[nH]2)cc1NC(=O)c1ccco1` [Compound 60, N-[5-(1H-benzimidazol-2-yl)-2-methylphenyl]-2-furamide], in the data set with EV-A71 (Table 13, Scaffold 4), the IC50 was above 25 µM. Also, in the data set “in vitro”, the CC50 at 3 days is above 400 µM.

Take `Nc1ccc(-c2nc3ccc(Cl)cc3[nH]2)cc1` [Compound 61, 4-(6-chloro-1H-benzimidazol-2-yl)aniline]: the 50% inhibitory concentration (IC50) in the data set with EV-A71 (Table 13, Scaffold 4) is 51.3 µM. Besides, the “Selectivity Index” value in the data set on EV-A71 (setting [3]) is listed as 2.46. In addition, the CC50 at 3 days in the data set “in vitro” came out at 126 µM.

As to `O=C(Nc1cccc(-c2nc3ccccc3[nH]2)c1)c1ccco1` [Compound 62, N-[3-(1H-benzimidazol-2-yl)phenyl]-2-furamide], the concentration for half-maximal inhibition (IC50) in the data set on EV-A71 (Table 13, Scaffold 4) was 50.2 µM. The “Selectivity Index” value with EV-A71 (setting [3]) amounted to 1.62. Further, the CC50 at 3 days in “in vitro” stood at 81.5 µM.

Consider `Cc1ccc2[nH]c(-c3cccc(NC(=O)c4ccc(Br)o4)c3)nc2c1` [Compound 64, 5-bromo-N-[3-(5-methyl-1H-benzimidazol-2-yl)phenyl]-2-furamide], for which the IC50 in the data set with EV-A71 (Table 13, Scaffold 4) was 71.4 µM. Also, the “Selectivity Index” value in the data set on EV-A71 (setting [3]) amounted to 0.61. Further, the CC50 at 3 days in the data set “in vitro” came out at 43.8 µM.

On to `c1ccc2[nH]c(-c3ccc(-c4nc5ccccc5[nH]4)cc3)nc2c1` [Compound 65, 2,2′-(1,4-phenylene)bis-1H-benzimidazole], for which the concentration for half-maximal inhibition (IC50) with EV-A71 (Table 8, virus-induced CPE) was 2.17 µM. Also, the “Selectivity Index” value was found to be 174.52 with EV-A71 (Table 8, CC50/IC50) and 174.52 with EV-A71 (setting [3]). For the same compound, in the data set “in vitro”, the CC50 at 3 days was determined as 379 µM.

As for `Cc1ccc(-c2nc3ccccc3[nH]2)cc1NC(=O)c1cc2ccccc2o1` [Compound 66, N-[5-(1H-benzimidazol-2-yl)-2-methylphenyl]-1-benzofuran-2-carboxamide], the IC50 in the data set on EV-A71 (Table 13, Scaffold 4) came out at 8.52 µM. Besides, the “Selectivity Index” value with EV-A71 (setting [3]) is on record as 11.11. The compound further showed a CC50 at 3 days in the data set “in vitro” of 94.7 µM.

Turning to `O=C(Nc1cccc(-c2nc3ccccc3[nH]2)c1)c1cc2ccccc2o1` [Compound 67, N-[3-(1H-benzimidazol-2-yl)phenyl]-1-benzofuran-2-carboxamide], the IC50 in the data set with EV-A71 (Table 13, Scaffold 4) worked out at 14.9 µM. Besides, the “Selectivity Index” value in the data set on EV-A71 (setting [3]) is on record as 2.89. In the data set “in vitro”, the CC50 at 3 days was 43 µM.

Consider `COc1ccccc1OCC(=O)Nc1ccc(-c2nc3cc(C)ccc3[nH]2)cc1` [Compound T1, 2-(2-methoxyphenoxy)-N-[4-(5-methyl-1H-benzimidazol-2-yl)phenyl]acetamide], for which, in the data set on EV-A71 (Table 6), the half-maximal inhibitory concentration (IC50) came out at 5 µM. Also, the “Selectivity Index” value in the data set with EV-A71 (Table 6, CC50/IC50) was determined as 61.24. The compound further displayed a CC50 at 3 days in “in vitro” of 306 µM.

Regarding `COc1cc(C)c(S(=O)(=O)NCCc2c(C)[nH]c3ccccc23)cc1C` [Compound T2, 4-methoxy-2,5-dimethyl-N-[2-(2-methyl-1H-indol-3-yl)ethyl]benzenesulfonamide], the IC50 in the data set with EV-A71 (Table 6) was found to be 17 µM. Besides, the “Selectivity Index” value with EV-A71 (Table 6, CC50/IC50) turned out to be 5.03. The same compound displayed a CC50 at 3 days in “in vitro” of 85.4 µM.

In the case of `O=C(Nc1ccc2[nH]c(-c3ccc(Br)o3)nc2c1)c1ccccc1` [Compound T4, N-[2-(5-bromo-2-furyl)-1H-benzimidazol-5-yl]benzamide], in the data set on EV-A71 (Table 6), the concentration for half-maximal inhibition (IC50) amounted to 12.2 µM. For the same compound, the “Selectivity Index” value with EV-A71 (Table 6, CC50/IC50) was above 16.33. In addition, the CC50 at 3 days in the data set “in vitro” was above 200 µM.

As to `COc1ccc(CCNC(=O)C(=O)c2c(-c3ccccc3)[nH]c3ccccc23)cc1OC` [Compound T6, N-[2-(3,4-dimethoxyphenyl)ethyl]-2-oxo-2-(2-phenyl-1H-indol-3-yl)acetamide], the IC50 in the data set with EV-A71 (Table 6) was 44.2 µM. Besides, the “Selectivity Index” value in the data set with EV-A71 (Table 6, CC50/IC50) is reported as above 4.52. For the same compound, in the data set “in vitro”, the CC50 at 3 days was above 200 µM.
